Experimental data: PubChem BioAssay (NCI)
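Tested at 5 concentrations; 48 h exposure; 96-well plates; endpoints linearly interpolated, else capped at highest concentration. GI50 marks 50% less growth. Definition used: TGI = concentration required for complete inhibition of growth.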 Peptide text beside a SMILES is read from it. * marks the point of attachment. Boc = CC(C)(C)OC(=O)*

Assays:
Test in all cases: NCI tumour cell line growth inhibition, 48 h
RXF 393 renal = test system: RXF 393 renal
U251 CNS = test system: U251 CNS
IGROV1 ovarian = test system: IGROV1 ovarian
MDA-MB-231 breast = test system: MDA-MB-231 breast
SK-MEL-28 melanoma = test system: SK-MEL-28 melanoma
HL-60(TB) leukemia = test system: HL-60(TB) leukemia
SF-268 CNS = test system: SF-268 CNS
SNB-19 CNS = test system: SNB-19 CNS
A498 renal = test system: A498 renal
NCI-H226 lung = test system: NCI-H226 lung
PC-3 prostate = test system: PC-3 prostate
NCI-H522 lung = test system: NCI-H522 lung
MDA-MB-435 = test system: MDA-MB-435
OVCAR-5 ovarian = test system: OVCAR-5 ovarian
SR leukemia = test system: SR leukemia
SK-MEL-2 melanoma = test system: SK-MEL-2 melanoma
CCRF-CEM leukemia = test system: CCRF-CEM leukemia
HCC-2998 colon = test system: HCC-2998 colon
SK-MEL-5 melanoma = test system: SK-MEL-5 melanoma
EKVX NSCLC = test system: EKVX NSCLC
UO-31 renal = test system: UO-31 renal
TK-10 renal = test system: TK-10 renal
OVCAR-3 ovarian = test system: OVCAR-3 ovarian
BT-549 breast = test system: BT-549 breast
UACC-257 melanoma = test system: UACC-257 melanoma
HS 578T breast = test system: HS 578T breast
SF-539 CNS = test system: SF-539 CNS
786-0 renal = test system: 786-0 renal
NCI-H460 lung = test system: NCI-H460 lung
SF-295 CNS = test system: SF-295 CNS
SW-620 colon = test system: SW-620 colon
OVCAR-4 ovarian = test system: OVCAR-4 ovarian
DU-145 prostate = test system: DU-145 prostate
A549 NSCLC = test system: A549 NSCLC
T-47D breast = test system: T-47D breast
LOX IMVI melanoma = test system: LOX IMVI melanoma
KM12 colon = test system: KM12 colon
HCT-15 colon = test system: HCT-15 colon
MOLT-4 leukemia = test system: MOLT-4 leukemia
NCI/ADR-RES ovarian = test system: NCI/ADR-RES ovarian
COLO 205 colon = test system: COLO 205 colon
NCI-H23 lung = test system: NCI-H23 lung
SK-OV-3 ovarian = test system: SK-OV-3 ovarian
M14 melanoma = test system: M14 melanoma
K-562 leukemia = test system: K-562 leukemia
HCT-116 colon = test system: HCT-116 colon
CAKI-1 renal = test system: CAKI-1 renal
UACC-62 melanoma = test system: UACC-62 melanoma
HT29 colon = test system: HT29 colon
OVCAR-8 ovarian = test system: OVCAR-8 ovarian
ACHN renal = test system: ACHN renal
SN12C renal = test system: SN12C renal
MALME-3M melanoma = test system: MALME-3M melanoma
HOP-62 NSCLC = test system: HOP-62 NSCLC
RPMI-8226 leukemia = test system: RPMI-8226 leukemia
SNB-75 CNS = test system: SNB-75 CNS
HOP-92 NSCLC = test system: HOP-92 NSCLC
MCF7 breast = test system: MCF7 breast

## C[C@]12CC[C@H]3[C@@H](CC[C@]4(O)C[C@@H](O)CC[C@]34C=O)[C@@]1(O)CC[C@@H]2C1=CC(=O)OC1
RXF 393 renal
  TGI: 0.877 µM
U251 CNS
  TGI: 2.9 µM
IGROV1 ovarian
  TGI: 19.6 µM
MDA-MB-231 breast
  TGI: > 29.6 µM
SK-MEL-28 melanoma
  TGI: 4.84 µM
HL-60(TB) leukemia
  TGI: 47.6 µM
SF-268 CNS
  TGI: 2 µM
SNB-19 CNS
  TGI: 4.87 µM
A498 renal
  TGI: 1.93 µM
NCI-H226 lung
  TGI: 2.69 µM
PC-3 prostate
  TGI: 4.56 µM
NCI-H522 lung
  TGI: 1.4 µM
MDA-MB-435
  TGI: 1.83 µM
OVCAR-5 ovarian
  TGI: 3.57 µM
SR leukemia
  TGI: > 100 µM
SK-MEL-2 melanoma
  TGI: 2.86 µM
CCRF-CEM leukemia
  TGI: > 100 µM
HCC-2998 colon
  TGI: 7.13 µM
SK-MEL-5 melanoma
  TGI: 1.16 µM
EKVX NSCLC
  TGI: 1.3 µM
UO-31 renal
  TGI: 2.91 µM
TK-10 renal
  TGI: 1.63 µM
OVCAR-3 ovarian
  TGI: 1.55 µM
BT-549 breast
  TGI: 1.08 µM
UACC-257 melanoma
  TGI: 2.5 µM
HS 578T breast
  TGI: > 100 µM
SF-539 CNS
  TGI: 0.967 µM
786-0 renal
  TGI: > 100 µM
NCI-H460 lung
  TGI: 0.591 µM
SF-295 CNS
  TGI: 1.74 µM
SW-620 colon
  TGI: 2.79 µM
OVCAR-4 ovarian
  TGI: 2.33 µM
DU-145 prostate
  TGI: 0.863 µM
A549 NSCLC
  TGI: 0.408 µM
T-47D breast
  TGI: 5.03 µM
LOX IMVI melanoma
  TGI: 2.46 µM
KM12 colon
  TGI: 6.66 µM
HCT-15 colon
  TGI: 1.47 µM
MOLT-4 leukemia
  TGI: 0.907 µM
NCI/ADR-RES ovarian
  TGI: 1.92 µM
COLO 205 colon
  TGI: 6.7 µM
NCI-H23 lung
  TGI: 1.12 µM
SK-OV-3 ovarian
  TGI: 2.79 µM
M14 melanoma
  TGI: 3.51 µM
K-562 leukemia
  TGI: > 100 µM
HCT-116 colon
  TGI: 0.595 µM
CAKI-1 renal
  TGI: 0.61 µM
UACC-62 melanoma
  TGI: 3.38 µM
HT29 colon
  TGI: 2.03 µM
OVCAR-8 ovarian
  TGI: 1.69 µM
ACHN renal
  TGI: 1.49 µM
SN12C renal
  TGI: 1.8 µM
MALME-3M melanoma
  TGI: 2.03 µM
HOP-62 NSCLC
  TGI: 0.533 µM

## CC(C)C(NC(=O)OC(C)(C)C)C(=O)N1CCCC1C(=O)O (stereo not drawn) (Boc-Val-Pro-OH; configuration not given here)
HS 578T breast
  GI50: 36.1 µg/mL
UACC-62 melanoma
  GI50: 94.1 µg/mL

## COc1cc2c(cc1OCC(=O)Nc1ccc(Cl)cc1C(=O)c1ccccc1Cl)N=CC1CCCN1C2=O (stereo not given)
RXF 393 renal
  GI50: 4.31 µM
  TGI: 15.6 µM
U251 CNS
  GI50: 6.36 µM
  TGI: 19.3 µM
IGROV1 ovarian
  GI50: 3.9 µM
  TGI: 16.4 µM
MDA-MB-231 breast
  GI50: 10.7 µM
  TGI: 25.7 µM
SK-MEL-28 melanoma
  GI50: 19.9 µM
  TGI: 36.4 µM
HL-60(TB) leukemia
  GI50: 16.3 µM
  TGI: 56.2 µM
SF-268 CNS
  GI50: 12.9 µM
  TGI: 33 µM
SNB-19 CNS
  GI50: 14.9 µM
  TGI: 30.1 µM
A498 renal
  GI50: 12.3 µM
  TGI: 24.9 µM
NCI-H226 lung
  GI50: 17.6 µM
  TGI: 34.3 µM
PC-3 prostate
  GI50: 12.3 µM
  TGI: 33.2 µM
NCI-H522 lung
  GI50: 2.59 µM
  TGI: 7.17 µM
MDA-MB-435
  GI50: 13 µM
  TGI: 26.3 µM
OVCAR-5 ovarian
  GI50: 24.6 µM
  TGI: 45.5 µM
SR leukemia
  GI50: 3.7 µM
  TGI: 28 µM
SK-MEL-2 melanoma
  GI50: 7.4 µM
  TGI: 19.6 µM
CCRF-CEM leukemia
  GI50: 6.52 µM
  TGI: > 100 µM
HCC-2998 colon
  GI50: 13.4 µM
  TGI: 34.3 µM
SK-MEL-5 melanoma
  GI50: 10 µM
  TGI: 21.9 µM
EKVX NSCLC
  GI50: 20.3 µM
  TGI: 35.1 µM
UO-31 renal
  GI50: 7.97 µM
  TGI: 20.5 µM
TK-10 renal
  GI50: 12.2 µM
  TGI: 25.1 µM
OVCAR-3 ovarian
  GI50: 3.72 µM
  TGI: 14.6 µM
RPMI-8226 leukemia
  GI50: 20.3 µM
  TGI: 98.8 µM
UACC-257 melanoma
  GI50: 16.6 µM
  TGI: 30.2 µM
HS 578T breast
  GI50: 7.17 µM
  TGI: 24 µM
SF-539 CNS
  GI50: 19.6 µM
  TGI: 33.9 µM
786-0 renal
  GI50: 12.4 µM
  TGI: 26 µM
NCI-H460 lung
  GI50: 11.1 µM
  TGI: 27.1 µM
SF-295 CNS
  GI50: 8.48 µM
  TGI: 22.9 µM
SNB-75 CNS
  GI50: 14.2 µM
  TGI: 28.8 µM
SW-620 colon
  GI50: 11.8 µM
  TGI: 25.8 µM
OVCAR-4 ovarian
  GI50: 14.4 µM
  TGI: 32.9 µM
DU-145 prostate
  GI50: 2.65 µM
  TGI: 8.56 µM
A549 NSCLC
  GI50: 16.8 µM
  TGI: 33 µM
T-47D breast
  GI50: 5.21 µM
  TGI: 22.2 µM
LOX IMVI melanoma
  GI50: 12.1 µM
  TGI: 26.2 µM
KM12 colon
  GI50: 11.8 µM
  TGI: 26 µM
HCT-15 colon
  GI50: 12.6 µM
  TGI: 26 µM
MOLT-4 leukemia
  GI50: 4.44 µM
  TGI: 28.2 µM
NCI/ADR-RES ovarian
  GI50: 21.5 µM
  TGI: 64.8 µM
COLO 205 colon
  GI50: 14.2 µM
  TGI: 30.8 µM
NCI-H23 lung
  GI50: 13.6 µM
  TGI: 30.5 µM
SK-OV-3 ovarian
  GI50: 3.08 µM
  TGI: 12 µM
M14 melanoma
  GI50: 14.1 µM
  TGI: 27.9 µM
K-562 leukemia
  GI50: 4.23 µM
  TGI: 19.9 µM
HOP-92 NSCLC
  GI50: 10.9 µM
  TGI: 28.8 µM
HCT-116 colon
  GI50: 7.18 µM
  TGI: 20.5 µM
CAKI-1 renal
  GI50: 13.6 µM
  TGI: 28.3 µM
UACC-62 melanoma
  GI50: 15.2 µM
  TGI: 29.2 µM
HT29 colon
  GI50: 11.9 µM
  TGI: 34.2 µM
MCF7 breast
  GI50: 5.27 µM
  TGI: 17.5 µM
OVCAR-8 ovarian
  GI50: 12 µM
  TGI: 26.3 µM
ACHN renal
  GI50: 11.5 µM
  TGI: 23.8 µM
SN12C renal
  GI50: 13.8 µM
  TGI: 27.8 µM
MALME-3M melanoma
  GI50: 20.1 µM
  TGI: 37 µM
HOP-62 NSCLC
  GI50: 13.8 µM
  TGI: 28.6 µM
